Results from patent US20250034186A1, “ANTIVIRAL COMPOUNDS” (priority 2020, published 2025).

What was measured:
[1] = system: HCV replicon 2A; assay: HCV Rep 2A EC50; type: cell-based; settings: for EC50: Hepatitis C virus, 72 h, HCV replicon cells, 3 days
Experimental: (§1) Compounds were serially diluted in ten steps of 1:3 dilutions in 384-well plates. All serial dilutions were performed in four replicates per compound within the same 384-well plate. […] To each well of a black polystyrene 384-well plate (Greiner Bio-one, Monroe, NC), 90 μL of cell culture medium (without Geneticin) containing 2000 suspended HCV replicon cells was added with a Biotek μFlow workstation. For compound transfer into cell culture plates, 0.4 μL of compound solution from the compound serial dilution plate was transferred to the cell culture plate on a Biomek FX workstation. The DMSO concentration in the final assay wells was 0.44%. The plates were incubated for 3 days at 37° C. with 5% CO2 and 85% humidity. The HCV replicon assay was a multiplex assay, able to assess both cytotoxicity and antireplicon activity from the same well. The CC50 assay was performed first. The media in the 384-well cell culture plate was aspirated, and the wells were washed four times with 100 μL of PBS each, using a Biotek ELX405 plate washer. A volume of 50 μL of a solution containing 400 nM calcein AM (Anaspec, Fremont, CA) in 1×PBS was added to each well of the plate with a Biotek μFlow workstation. The plate was incubated for 30 min at room temperature before the fluorescence signal (excitation 490 nm, emission 520 nm) was measured with a Perkin-Elmer Envision plate reader. The EC50 assay was performed in the same wells as the CC50 assay. The calcein-PBS solution in the 384-well cell culture plate was aspirated with a Biotek ELX405 plate washer. A volume of 20 μL of Dual-Glo luciferase buffer (Promega, Madison, WI) was added to each well of the plate with a Biotek μFlow Workstation. The plate was incubated for 10 min at room temperature. […] The plate was then incubated at room temperature for 10 min before the luminescence signal was measured with a Perkin-Elmer Envision Plate Reader.

[2] = system: HCV replicon 1B; assay: HCV Rep 1B EC50; type: cell-based; settings: for EC50: Hepatitis C virus, 72 h, HCV replicon cells, 3 days
Experimental: as §1

[3] = PHH cytotoxicity assay; type: cell-based; settings: human, fresh primary hepatocytes (PHH), daily replacement
Experimental: Three-fold serial dilutions of the compound of Formula I and compounds 1, 2 and 6 were prepared in duplicate in 96-well plates starting at a concentration of 50 or 100 μM. Fresh human hepatocytes were ordered in a 96-well plate format from BioIVT (Baltimore, Maryland, Cat #F/M91565) with a Matrigel overlay or Invitrogen (Durham, North Carolina, Cat #HMFY96) with a Geltrex overlay. Donor profiles were limited to 4-65-year old with minimal alcohol consumption. PHH cells were allowed to recover 4-24 hours in complete medium with added supplement supplied by the vendor at 37° C. in a 5% CO2 incubator with 90% humidity before treated with compounds. Serial-diluted compounds and complete medium were replaced (130 μL/well) daily for 5 days, with final amount of DMSO equal to 0.5%. On Day 5, medium was removed from the assay plates and cell viability was determined by the addition of 100 μL Cell-Titer Glo viability reagents (Promega, Madison, WI, Cat #G7573) added to each well. Following 5-10 minutes incubation at room temperature, luminescence signal was quantified on a Victor Luminescence plate reader (Perkin-Elmer, Waltham, MA).

[4] = NHBE in-vitro intracellular triphosphate formation; type: in vitro ADME, human; settings: 10 μM, up to 26 h, compared to compound 2 and/or 6 (FIG. 1)
Experimental: In-vitro intracellular triphosphate formation was measured for the compound of Formula I and compound 6 using the following protocol. Normal human bronchial airway epithelial cells (NHBEs) (0.25 million cells/well) were continuously incubated with 10 μM of compound for 26 hours. At select time points (2, 4, 6, and 26 h), the extracellular medium was removed from the well and the cells were washed twice with 2 mL of ice-cold 0.9% normal saline and extracted into 0.5 mL ice-cold 70% methanol containing 100 nM 2-chloro-adenosine-5′-triphosphate (Sigma-Aldrich, St. Louis, MO) as an internal standard. Samples were stored overnight at −20° C. to facilitate nucleotide extraction, centrifuged at 15,000×g for 15 minutes and then supernatant was transferred to clean tubes for drying in a MiVac Duo concentrator (Genevac, Gardiner, NY). Dried samples were then reconstituted in mobile phase A containing 3 mM ammonium formate (pH 5.0) with 10 mM dimethylhexylamine (DMHA) in water for analysis by LC-MS/MS.

[5] = system: Dengue serotype 2 New Guinea C (NGC) strain; assay: DENV-2 Huh-7 EC50; type: cell-based; settings: Dengue virus, Huh7 cells, 48 hours, qPCR
Experimental: Huh7 (Human hepatocarcinoma 7) cells were maintained in 10% FCS-containing DMEM complete media. On the day of the assay, cells were trypsinized (0.1% Trypsin-EDTA), washed and infected for 2 hours in serum-free DMEM with Dengue serotype 2 New Guinea C (NGC) strain at MOI=0.1 with gentle agitation at 37° C. After 2 hours, cells were washed with serum-free media and suspended in 10% FCS-containing DMEM (Gibco, supplemented with sodium pyruvate, NEAA, Penicillin-Streptomycin). […] were plated in triplicate in 96-well plates with compounds dispensed at graded doses (Hewlett-Packard D300 Digital Dispenser). All wells were normalized to 0.25% DMSO. At 48 hours, cells were washed with 1×PBS and all supernatants removed. Total RNA was extracted using RNEasy 96 plates (Qiagen) and used to generate first-strand cDNA using XLT cDNA 5× Supermix (QuantaBio). cDNA was used as a template in a Taqman qPCR duplex reaction specific to DENV2 viral and GAPDH gene expression. EC50 values were determined using Prism Graphpad software, with normalization to a positive control and no compound negative control wells.

SMILES	EC50 [1] [nM]	EC50 [2] [nM]	CC50 at 5 days [3] [nM]	in-vitro intracellular NTP formation in NHBEs [4]	times more potent relative to compound 2, HCV Rep 2A ([1]; EC50 ratio vs compound 2) [times]	EC50 [5] [nM]	times more potent relative to compound 2, HCV Rep 1B ([2]; EC50 ratio vs compound 2)
CCC(CC)COC(=O)[C@H](C)NP(=O)(OC[C@@]1(C#N)O[C@@H](c2ccc3c(N)ncnn23)[C@H](O)[C@@H]1O)Oc1ccccc1 (stereo partly shown) [Compound 2, reference compound]	1830	2780	–	–	–	–	–
CCC(CC)COC(=O)[C@H](C)N[P@](=O)(OC[C@@]1(C#N)O[C@@H](c2ccc3c(N)ncnn23)[C@H](O)[C@@H]1O)Oc1ccccc1 [Compound 6, 2-ethylbutyl ((S)-(((2R,3S,4R,5S)-5-(4-aminopyrrolo[2,1-f][1,2,4]triazin-7-yl)-2-cyano-3,4-dihydroxytetrahydrofuran-2-yl)methoxy)(phenoxy)phosphoryl)alaninate]	–	–	14100	–	–	–	–
C[C@H](N[P@](=O)(OC[C@@]1(C#N)O[C@@H](c2ccc3c(N)ncnn23)[C@H](O)[C@@H]1O)Oc1ccccc1)C(=O)OC1CCCCC1 [Formula I, cyclohexyl ((S)-(((2R,3S,4R,5S)-5-(4-aminopyrrolo[2,1-f][1,2,4]triazin-7-yl)-2-cyano-3,4-dihydroxytetrahydrofuran-2-yl)methoxy)(phenoxy)phosphoryl)-L-alaninate]	1270	793	21200	equal to or better	~1.4	1630	about 3.5 times
